Data reported in EP0530994A1, “Quinazoline derivatives as inhibitors of HIV reverse transcriptase” (MERCK & CO. INC., priority 1991, dated 1993).

Biological target: T1, recombinant HIV reverse transcriptase (HIV RTR) (Human immunodeficiency virus type 1 group M subtype B, UniProt P03366)
T1 construct: recombinant HIV reverse transcriptase (HIV RTR)
Experiment: Reverse transcriptase assay (incorporation of tritiated deoxyguanosine monophosphate into acid-precipitable cDNA)
Format: biochemical
Conditions: [³H] dGTP and poly r(C)·oligo d(G)12-18 each at about Km; 37°C for 45 minutes; read-out: IC₅₀ value
Description: The assay measures the incorporation of tritiated deoxyguanosine monophosphate by recombinant HIV reverse transcriptase (HIV RTR) (or other RT) into acid-precipitable cDNA at the Km values of dGTP and poly r(C)·oligo d(G)₁₂₋₁₈.
Thirty µL of a reaction mixture containing equal volumes of: 500 mM Tris·HCl (pH 8.2), 300 mM MgCl₂, 1200 mM KCl, 10 mM DTT, 400 µg/mL poly r(c)·oligo d(G) [prepared by dissolving 1.5 mg (25 U) poly r(C)·oligo d(G) in 1.5 ml sterile distilled H₂O and diluting to 400 µg/ml], 0.1 µCi/µl [³H] dGTP, 160 µM dGTP, was added to 10 µl sterile distilled H₂O, 2.5 µl of potential inhibitor and 10 µL of 5 nM purified HIV RTR in tubes. The mixture was incubated at 37°C for 45 minutes.
After incubation is complete, the tubes were cooled in ice for 5 minutes. Ice-cold 13% TCA containing 10 mM NaPPi (200 µl) is added and the mixture incubated on ice for 30 minutes. The precipitated cDNA is removed by filtration using presoaked glass filters [TCA, NaPPi]. […]
The filter discs are then counted in a scintillation counter.
Under these conditions [dGTP] and poly r(C)·oligo d(G)₁₂₋₁₈ each are approximately equal to the appropriate Km value. […] Calculated IC₅₀ values for the tested compounds of this invention vary from about 12 nM to more than 300 µM, with the most preferred compounds having values of between about 30 nM and about 60 µM. […]

In the case of `C#CC1(c2ccccc2)c2cc(Cl)ccc2NC(=O)N1C` (single isomer, unassigned; (+)) [(+) optical isomer of compound 4, 6-Chloro-3,4-dihydro-3-methyl-4-phenyl-4-ethynyl-2(1H)-quinazolinone], the IC50 is reported as roughly 60 pM.
